The values below come from US10722582B2, “Targeted antimicrobial photodynamic therapy” (Purdue Research Foundation, priority 2018, dated 2020).

Type in all cases: cell-based, Staphylococcus aureus
Experiment [1] relates to S. aureus (PCI 1203). Nature of the experiment: Competitive hemin uptake assay (fluorescence microscopy). As to conditions: for Fluorescence after 15 min / Fluorescence after 15 min exposure + 1 equiv. hemin: Fe-deficient conditions (TS media containing 3 mM bipy), no background subtraction; for effect of hemin competition on uptake: one equivalent of hemin, 15 minutes of co-incubation. The method, then:
To elucidate the relevant structural features for the specific uptake of Ga-PpIX by S. aureus, we performed a competitive uptake assay using one equivalent of hemin against Ga-PpIX, PpIX, and eleven other fluorescent PpIX derivatives, with evaluation by fluorescence microscopy after 15 minutes of co-incubation (FIG. 5 and Table 4). These studies were partly guided by insights taken from the X-ray structures of hemin and Ga-PpIX within the binding pocket of IsdH: (i) coordination of the metal center by an apical tyrosine residue; (ii) the flanking of vinyl groups on pyrrole rings A and B against nearby aromatic residues; and (iii) the extension and presumed hydration of the propionyl groups (rings C and D) outside of the binding pocket.
Bacteria were cultured and assayed in iron-deficient media unless otherwise noted. A stock solution of Ga-PpIX (14.6 μM) was prepared by dispersing 5 mg in 1 mL of 10% DMSO in PBS for 10 minutes in an ultrasonic cleaning bath protected from light, followed by filtration and 10× dilution in PBS just prior to use. Bacterial suspensions (0.5 mL) were treated with freshly prepared solutions of PpIX derivatives for specified periods (5-15 min), then harvested by centrifugation at 5.2 g for 5 minutes, redispersed twice in 0.5 mL deionized water, and centrifuged a third time. A 10-μL aliquot of concentrated bacteria was deposited onto a glass slide and dried in air for 20 min, then imaged by fluorescence microscopy as described above. For details on fluorescence image processing and quantitative analysis, see Supporting Information.
S. aureus (PCI 1203; ATCC 10537) was first cultured in standard TS broth, then in media containing 3 mM bipyridine. Bacteria were pelleted and washed with PBS buffer three times, then resuspended to a final concentration of 10^8 cfu/mL. Stock solutions of hemin and PpIX derivatives 1-13 were prepared at initial concentrations of 292 μM; hemin and fluorescent PpIX solutions were mixed in a 1:1 ratio (0.5 mL), then added to 0.5 mL of bacterial suspension and allowed to sit for 15 min at room temperature. For control studies, hemin or fluorophore solutions were substituted with PBS to maintain constant […]. Bacteria were harvested and washed as described above, then evaluated by fluorescence microscopy for relative uptake efficiency.
Darkfield and fluorescent images were acquired in succession, with the former used to map regions of interest (ROIs) by tracing the outlines of bacteria (FIG. 8). Three images were acquired for each sample; in each case, the tracing map was overlaid onto the fluorescence image to calculate pixel intensities within each ROI, using the mean pixel intensity for quantitative analysis. Bacteria were also imaged without treatment with PpIX analogs, most of which produced values close to that of background except for Salmonella enterica, which served as the upper limit of autofluorescence (cf. FIG. 4). Data collection and image analyses were performed by the same user to ensure consistency for comparative analysis.

Experiment [2] has as its system S. aureus (PCI 1203; ATCC 10537). In words: aPDI with CFL irradiation (406 nm), planktonic bacteria, drop-plate colony count. As to conditions: for potency relative to dark toxicity (0 min exposure): 3-log reduction. On the procedure:
The aPDI properties of Ga-PpIX were compared against PpIX, whose photosensitizer activities are well known and whose optical profile is similar to that of Ga-PpIX (FIG. 2).
All bacterial strains were cultured at 37° C. in an aerobic atmosphere unless otherwise noted. […] Bacterial counts were estimated in units of cfu/mL by plating serial dilutions onto agar plates, followed by incubation for 16 hours at 37° C. […] Further details and variations on iron-deficient culture conditions are provided in Supporting Information.
Antimicrobial assays were performed on planktonic bacteria at 10^7 cfu/mL with variable exposure times to CFL irradiation, followed by plating on agar and incubation at 37° C. […] The irradiated bacteria were plated onto agar in serial tenfold dilutions (10^7-10^1 cfu/mL); controls included one set of wells without photosensitizer, and one set of wells with photosensitizer but without 15 min irradiation, prior to plating (dark toxicity). Bacterial counts were determined by the drop-plate method using TS-agar plates, and reported in colony-forming units per milliliter (cfu/mL).
The irradiation source consisted of a 20-W compact fluorescent lightbulb (CFL; Sunlite SL20/BLB) housed in an ellipsoidal reflector dome.

Experiment [3] deals with S. aureus. In words: Antibacterial activity assay with LED light. The method, then: (§1) Antibacterial activity assay general protocol: Used LED light to test conditions. Bacteria were grown in TS broth, followed by 3 mM bipyridine in TS broth until log phase. Bacteria were then diluted with PBS, to OD 0.1 (˜10^) and then to ˜10^7 cfu/mL. 100 uL of bacteria were placed in 96 well plates with the appropriate GaPpIX concentration. 2× serial dilutions were then done to obtain other GaPpIX concentrations. Each concentration was done in triplicate. Bacteria were left incubating and irradiating for different amount of times at different light powers or left in the dark. 10× Serial dilutions were done and bacteria were plated for colony counting using the drop-plate technique. Colonies were counted after 24 hours. As reported herein, a 3-log reduction equals measurable antimicrobial action; a 6-log reduction equals total eradication.
(§2) Stock solution preparation (AVM-3-36, 10 nm AgNP). Prepared a solution of (AVM-2-273) GaPpIX-apoHb 1 mg/mL in MP H2O, deaerated. Took 10 mL of 10 nm AgNPs, centrifuged at 900 G for 5 min (Beckman, 3100 RPM), took supernantant and added 200 uL of GaPpIXHb. After overnight, centrifuged 3000 RPM g for 5 minutes (Beckman). Took supernantant and centrifuged using a 100 K CentriCon tube at 4000 RPM for 5 minutes, 3×. Added 15 mM borate buffer to NPs. Based on calibration curve, the stock solution is 1.94 ug/mL AgNP, so stock: 79 μg/mL AgNP, 10.37 μg/mL GaPpIXHb, 0.446 μg/mL GaPpIX (refer to AVM-2-293A and AVM-3-3).
(§3) The following antibacterial activity measurements were assayed in the presence of AgNP.

The subject of experiment [4] is MRSA387. In words: Antibacterial activity assay with LED light. Particulars: in the presence of 10 nm AgNP. The method, then:
as §1, §2, §3

Experiment [5] has as its system MRSA386. Nature of the experiment: Antibacterial activity assay with LED light. As to conditions: in the presence of 10 nm AgNP. The method, then:
as §1, §2, §3

Experiment [6] relates to MRSA383. In words: Antibacterial activity assay with LED light. As to conditions: in the presence of 10 nm AgNP. The method, then:
as §1, §2, §3

In experiment [7] the test system is MRSA385. In words: Antibacterial activity assay with LED light. Particulars: in the presence of 10 nm AgNP. On the procedure:
as §1, §2, §3

Experiment [8] relates to S. aureus. In words: aPDI with 405-nm LED bar, summary over strains. Particulars: Ga-hemoglobin on 10-nm AgNP, 405-nm light, fluence about 1 J/cm^2. On the procedure: as §1
Experiment [9] concerns S. aureus (PCI 1203). In words: Competitive hemin uptake assay (fluorescence microscopy). Particulars: standard conditions (TS media); no background subtraction.

For the compound “3,8-Diacetyldeuteroporphyrin dimethyl diester [DiAcDP diMe (12)]”, in experiment [1], the “Fluorescence after 15 min” value was found to be 20.9 a.u, the “Fluorescence after 15 min exposure + 1 equiv. hemin” value amounted to 18.05 a.u and the “effect of hemin competition on uptake” value is listed as “less affected by hemin”.
With `CC1=C(CCC(=O)O)c2cc3[nH]c(cc4nc(cc5[nH]c(cc1n2)c(C)c5C(C)O)C(C)=C4C(C)O)c(C)c3CCC(=O)O` (stereo not drawn) [HP (4), hematoporphyrin], in experiment [1], the “Fluorescence after 15 min” value worked out at 14.38 a.u and the “Fluorescence after 15 min exposure + 1 equiv. hemin” value was determined as 9.58 a.u.
As for `COC(=O)CCc1c(C)c2cc3nc(cc4nc(cc5[nH]c(cc1[nH]2)c(CCC(=O)OC)c5C)C(C(C)O)=C4C)C(C(C)O)=C3C` (stereo not drawn) [HP diMe (8), HP dimethyl diester], in experiment [1], the “Fluorescence after 15 min” value is 29.05 a.u and the “Fluorescence after 15 min exposure + 1 equiv. hemin” value worked out at 26.9 a.u.
For `C=CC1=C(C)c2cc3[nH]c(cc4[nH]c(cc5nc(cc1n2)C(C)=C5C=C)c(C)c4CCC(=O)OC)c(CCC(=O)OC)c3C` [PpIX diMe (7), PpIX dimethyl diester], in [1], the “Fluorescence after 15 min” value is given as 15.75 a.u and the “Fluorescence after 15 min exposure + 1 equiv. hemin” value was determined as 12.75 a.u.
Consider `C[n+]1ccc(-c2c3nc(c(-c4cc[n+](C)cc4)c4ccc([nH]4)c(-c4cc[n+](C)cc4)c4nc(c(-c5cc[n+](C)cc5)c5ccc2[nH]5)C=C4)C=C3)cc1` [TMPyP, reference compound], for which the “Antimicrobial activity (minimum 3-log CFU reduction)” value in [2] (0 min (dark), no irradiation (dark toxicity)) is less than 7.4 μM; in experiment [2] (0 min (dark), no irradiation (dark toxicity), listed as TMPy), less than 7.4 μM; in [2] (5 min CFL 406 nm, 12.4 mW/cm^2 (3.7 J/cm^2)), 0.92 μM; in [2] (15 min CFL 406 nm, 12.4 mW/cm^2 (11.2 J/cm^2)), 0.23 μM. The results for the “potency relative to dark toxicity (0 min exposure)” value in experiment [2] (5 min CFL) and in experiment [2] (15 min CFL) were less than 8x and less than 32x, respectively. Moreover, in [3], the “concentration for 3-log reduction (measurable antimicrobial action)” value is given as 235 nM. Besides, the “concentration for 6-log reduction (total eradication)” value in experiment [3] is recorded as 940 nM.
`C=CC1=C(C)c2cc3[n-]c(cc4nc(cc5[n-]c(cc1n2)c(C)c5C=C)C(C)=C4CCC(=O)O)c(CCC(=O)O)c3C.[Zn+2]` [Zn-PpIX (3), Zn-PpIX]: in experiment [1], the “Fluorescence after 15 min” value is recorded as 31.45 a.u, the “Fluorescence after 15 min exposure + 1 equiv. hemin” value worked out at 16.87 a.u and the “effect of hemin competition on uptake” value was “moderately affected by hemin”.
Regarding `C=CC1=C(C)c2cc3[n-]c(cc4[n-]c(cc5nc(cc1n2)C(C)=C5C=C)c(C)c4CCC(=O)O)c(CCC(=O)O)c3C.[Cl-].[Fe+3]` [hemin, Fe(III)-protoporphyrin IX, reference compound], the “Fluorescence after 15 min” value in experiment [1] turned out to be 2.55 a.u.
As to “Ga(III) diacetyldeuteroporphyrin (diAcDP) dimethyl diester [Ga-DiAcDP diMe (11)]”, in experiment [1], the “Fluorescence after 15 min” value came to 12.27 a.u, the “Fluorescence after 15 min exposure + 1 equiv. hemin” value is 11.85 a.u and the “effect of hemin competition on uptake” value is given as “less affected by hemin”.
With “Ga(III)-PpIX dimethyl diester [Ga-PpIX diMe (6)]”, in experiment [1], the “Fluorescence after 15 min” value stood at 60.55 a.u and the “Fluorescence after 15 min exposure + 1 equiv. hemin” value turned out to be 33.95 a.u.
Take “GaPpIX/10 nm HbAgNP: GaPpIX added to apohemoglobin (Ga-hemoglobin) adsorbed onto 10-nm Ag nanoparticles”: the “concentration for 3-log reduction” value in experiment [4] stood at 43 nM; in experiment [5] it was 79 nM; in experiment [6], 27 nM; in experiment [3] (in the presence of 10 nm AgNP), 22 nM; in experiment [7] it was 27 nM. For the same compound, the “concentration for 6-log reduction” value was found to be 218 nM in [4]; 158 nM in experiment [5]; 79 nM in experiment [6]; 27 nM in experiment [3] (in the presence of 10 nm AgNP); 109 nM in experiment [7]. Further, in [8], the “GaPpIX effective concentration (aPDI)” value was 0.022 to 0.080 µM.
Consider “Verteporfin [Verteporfin (13), reference compound]”, for which, in experiment [9], the “Fluorescence after 15 min” value is 25.82 a.u and the “Fluorescence after 15 min exposure + 1 equiv. hemin” value is on record as 23.72 a.u. In [1], the “Fluorescence after 15 min” value stood at 30.75 a.u, the “Fluorescence after 15 min exposure + 1 equiv. hemin” value is recorded as 28 a.u and the “effect of hemin competition on uptake” value is recorded as “less affected by hemin”.
For the compound Zn-HP [Zn-HP (5)], in experiment [1], the “Fluorescence after 15 min” value amounted to 29.2 a.u, the “Fluorescence after 15 min exposure + 1 equiv. hemin” value is given as 14.52 a.u and the “effect of hemin competition on uptake” value is reported as “moderately affected by hemin”.
Turning to “di-O-acetyl-HP dimethyl diester [DiAcHP diMe (9)]”, in experiment [1], the “Fluorescence after 15 min” value was 21.6 a.u, the “Fluorescence after 15 min exposure + 1 equiv. hemin” value is 18.95 a.u and the “effect of hemin competition on uptake” value is listed as “less affected by hemin”.
As to “di-O-succinyl-HP dimethyl diester [DiSuccHP diMe (10)]”, in experiment [1], the “Fluorescence after 15 min” value is given as 19.37 a.u, the “Fluorescence after 15 min exposure + 1 equiv. hemin” value came out at 16.9 a.u and the “effect of hemin competition on uptake” value is “less affected by hemin”.
